Measurements from patent US11555042B2, “Macrocyclic compounds as TRK kinases inhibitors” (FOCHON BIOSCIENCES, LTD., priority 2018, dated 2023).

What follows are compounds tested on KM12 cells (assay: KM12 cells proliferation inhibition (MTS), mechanism-based assay for TRK). Conditions: 72 h.
Assay type: cell-based
Description: (§1) MTS testing kit was purchased from Promega (Madison, Wis., USA). The RPMI-1640, Fetal bovine serum and Penicillin-Streptomycin were purchased from Gibco (San Francisco, Calif., USA). Dimethyl sulfoxide (DMSO) and Puromycin were purchased from Sigma (St. Louis., Mo., USA). Mouse interleukin-3 (IL-3) was purchased from Cell signaling Technology (Boston, Mass., USA).
To investigate whether a compound is able to inhibit the activity of TRK in cells, a mechanism-based assay using KM12 cells was developed. In this assay, inhibition of TRK was detected by the inhibition of KM12 cells proliferation. KM12 cells were cultured in culture flasks to 40-80% confluence in RPMI-1640 plus 10% fetal bovine serum. Cells were collected and plated onto 96-well plates at 1000 cells/well. Plates were incubated at 37° C., with 5% CO2 for 4 h. Compounds were added to the plates, the final compound concentrations were […], 123.5, 41.2, 13.7, 4.6 and 1.5 nM. Place plates at 37° C., with 5% CO2 for KM12 cells 72 h. 20 μl MTS/100 μl medium mixture solution were added to each well and incubate the plates for exactly 2 h. Stop the reaction by adding 25 μl 10% SDS per well. Measure absorbance at 490 nm and 650 nm (reference wavelength). IC50 was calculated using GraphPad Prism 5.0.

Row | SMILES | IC50 [nM]
1 | C[C@@H]1CCc2ccc(F)cc2C23CC2CCN3c2ccc3ncc(n3n2)C(=O)N1 (single isomer, unassigned) [Example 33B] | 1
2 | C[C@@H]1CCc2ccc(F)cc2C23CC2CCN3c2ccn3ncc(c3n2)C(=O)N1 (stereo partly drawn) [Example 12B, (1^3E,1^4E,6R)-3^5-fluoro-6-methyl-2^2,7-diaza-1(5,3)-pyrazolo[1,5-a]pyrimidina-2(2,1)-bicyclo[3.1.0]hexana-3(1,2)-benzenacyclooctaphan-8-one] | 2

Same assay, conditions: Homo sapiens, KM12, 72 h

Row | SMILES | IC50 [nM]
3 | C[C@@H]1CCc2ccc(F)cc2C23CC2CCN3c2ccc3ncc(n3n2)C(=O)N1 (single isomer, unassigned) [Example 33A] | 1
4 | C[C@@H]1COc2ccc(F)cc2C23CC2CCN3c2ccn3ncc(c3n2)C(=O)N1 (stereo partly drawn) [Example 1, (1^3E,1^4E,6R)-3^5-fluoro-6-methyl-4-oxa-2^2,7-diaza-1(5,3)-pyrazolo[1,5-a]pyrimidina-2(2,1)-azabicyclo[3.1.0]hexana-3(1,2)-benzenacyclooctaphan-8-one] | 1
5 | C[C@@H]1COc2ccc(F)cc2C2(CC2)Nc2ccn3ncc(c3n2)C(=O)N1 [Example 2, (R,3′E,4′E)-5′-fluoro-7′-methylspiro[cyclopropane-1,3′-5-oxa-2,8-diaza-1(5,3)-pyrazolo[1,5-a]pyrimidina-4(1,2)-benzenacyclononaphan]-9′-one] | 1
6 | C[C@H]1CNC(=O)c2cnn3ccc(nc23)NC2(CC2)c2cc(F)ccc2O1 [Example 4, (S,3′E,4′E)-5′-fluoro-6′-methylspiro[cyclopropane-1,3′-5-oxa-2,8-diaza-1(5,3)-pyrazolo[1,5-a]pyrimidina-4(1,2)-benzenacyclononaphan]-9′-one] | 1
7 | C[C@@H]1CCc2ncc(F)cc2C23CC2CCN3c2ccn3ncc(c3n2)C(=O)N1 (stereo partly drawn) [Example 5, (1^3E,1^4E,6R)-3^5-fluoro-6-methyl-2^2,7-diaza-1(5,3)-pyrazolo[1,5-a]pyrimidina-3(3,2)-pyridina-2(2,1)-bicyclo[3.1.0]hexanacyclooctaphan-8-one] | 1
8 | C[C@@H]1COc2ncc(F)cc2C23CC2CCN3c2ccn3ncc(c3n2)C(=O)N1 (stereo partly drawn) [Example 6, (1^3E,1^4E,6R)-3^5-fluoro-6-methyl-4-oxa-2^2,7-diaza-1(5,3)-pyrazolo[1,5-a]-pyrimidina-3(3,2)-pyridina-2(2,1)-bicyclo[3.1.0]hexanacyclooctaphan-8-one] | 1
9 | C[C@H]1CNC(=O)c2cnn3ccc(nc23)N2CCC3CC32c2cc(F)cnc2O1 (stereo partly drawn) [Example 7, (1^3E,1^4E,5S)-3^5-fluoro-5-methyl-4-oxa-2^2,7-diaza-1(5,3)-pyrazolo[1,5-a]pyrimidina-3(3,2)-pyridina-2(2,1)-bicyclo[3.1.0]hexanacyclooctaphan-8-one] | 1
10 | C[C@H]1CNC(=O)c2cnn3ccc(nc23)NC2(CC2)c2cc(F)cnc2O1 [Example 9, (S,3′E,4′E)-5′-fluoro-6′-methylspiro[cyclopropane-1,3′-5-oxa-2,8-diaza-1(5,3)-pyrazolo[1,5-a]pyrimidina-4(3,2)-pyridinacyclononaphan]-9′-one] | 7
11 | C[C@@H]1CCc2ncc(F)cc2C2(CC2)Nc2ccn3ncc(c3n2)C(=O)N1 [Example 10, (R,3′E,4′E)-5′-fluoro-7′-methylspiro[cyclopropane-1,3′-2,8-diaza-1(5,3)-pyrazolo[1,5-a]pyrimidina-4(3,2)-pyridinacyclononaphan]-9′-one] | 1
12 | C[C@@H]1CCc2ccc(F)cc2C23CC2CCN3c2ccn3ncc(c3n2)C(=O)N1 (stereo partly drawn) [Example 12A, (1^3E,1^4E,6R)-3^5-fluoro-6-methyl-2^2,7-diaza-1(5,3)-pyrazolo[1,5-a]pyrimidina-2(2,1)-bicyclo[3.1.0]hexana-3(1,2)-benzenacyclooctaphan-8-one] | 1
13 | C[C@@H]1COc2ccc(F)cc2C23CC2CCN3c2ccc3ncc(n3n2)C(=O)N1 (stereo partly drawn) [Example 13, (6R,E)-3^5-fluoro-6-methyl-4-oxa-2^2,7-diaza-1(6,3)-imidazo[1,2-b]pyridazina-2(2,1)-bicyclo[3.1.0]hexana-3(1,2)-benzenacyclooctaphan-8-one] | 1
14 | C[C@@H]1COc2ncc(F)cc2C23CC2CCN3c2ccc3ncc(n3n2)C(=O)N1 (stereo partly drawn) [Example 14, (6R,E)-3^5-fluoro-6-methyl-4-oxa-2^2,7-diaza-1(6,3)-imidazo[1,2-b]pyridazina-3(3,2)-pyridina-2(2,1)-bicyclo[3.1.0]hexanacyclooctaphan-8-one] | 1
15 | C[C@H]1CNC(=O)c2cnc3ccc(nn23)N2CCC3CC32c2cc(F)ccc2O1 (stereo partly drawn) [Example 32, (5S,E)-3^5-fluoro-5-methyl-4-oxa-2^2,7-diaza-1(6,3)-imidazo[1,2-b]pyridazina-2(2,1)-bicyclo[3.1.0]hexana-3(1,2)-benzenacyclo-octaphan-8-one] | 1
16 | C[C@H]1CNC(=O)c2cnc3ccc(nn23)N2CCC3CC32c2cc(F)cnc2O1 (stereo partly drawn) [Example 34, (5S,E)-3^5-fluoro-5-methyl-4-oxa-2^2,7-diaza-1(6,3)-imidazo[1,2-b]pyridazina-3(3,2)-pyridina-2(2,1)-bicyclo[3.1.0]-hexanacyclooctaphan-8-one] | 1
17 | C[C@@H]1CCc2ncc(F)cc2C23CC2CCN3c2ccc3ncc(n3n2)C(=O)N1 (stereo partly drawn) [Example 35, (6R,E)-3^5-fluoro-6-methyl-2^2,7-diaza-1(6,3)-imidazo[1,2-b]pyridazina-3(3,2)-pyridina-2(2,1)-bicyclo[3.1.0]hexanacyclo-octaphan-8-one] | 1
18 | C[C@@H]1CNC(=O)c2cnn3ccc(nc23)NC2(CC2)c2cc(F)cnc2O1 [Example 42, (R,3′E,4′E)-5′-fluoro-6′-methylspiro-[cyclopropane-1,3′-5-oxa-2,8-diaza-1(5,3)-pyrazolo[1,5-a]pyrimidina-4(3,2)-pyridina-cyclononaphan]-9′-one] | 3
19 | C[C@@H]1COc2ccc(F)cc2C2(CC2)N(C)c2ccc3ncc(n3n2)C(=O)N1 [Example 53, (7′R,E)-5′-fluoro-2′,7′-dimethylspiro-[cyclopropane-1,3′-5-oxa-2,8-diaza-1(6,3)-imidazo[1,2-b]pyridazina-4(1,2)-benzenacyclononaphan]-9′-one] | 30
20 | C[C@@H]1CCc2ccc(F)cc2C2(CC2)N(C)c2ccc3ncc(n3n2)C(=O)N1 [Example 56, (7′R,E)-5′-fluoro-2′,7′-dimethylspiro-[cyclopropane-1,3′-2,8-diaza-1(6,3)-imidazo[1,2-b]pyridazina-4(1,2)-benzenacyclononaphan]-9′-one] | 3

These compounds were tested against T1, ETV6-TRKC-G623R (Homo sapiens, UniProt Q16288, G623R) (assay: Engineered Ba/F3 cell proliferation inhibition (MTS), ETV6-TRKC-G623R). Conditions: 72 h.
T1 construct: fused on or other part: P41212 (Transcription factor ETV6)
Assay type: cell-based
Description: as §1
To investigate whether a compound is able to inhibit the activity of TRK fusion mutation in cells, a mechanism-based assay using engineered Ba/F3 cell lines stably overexpressing oncogenic rearrangement or gene mutation of TRK (TPM3-TRKA, TPM3-TRKA-G595R, AFAP1-TRKB, ETV6-TRKC and ETV6-TRKC-G623R) were developed. In this assay, inhibition of TRK fusion mutation was detected by the cell proliferation inhibition of engineered Ba/F3 cells. Engineered Ba/F3 cells were cultured in culture flasks to 40-80% confluence in RPMI-1640 supplemented with 10% fetal bovine serum, 2 ug/mL puromycin. Cells were collected and plated onto 96-well plates at desired cell density (Ba/F3-TPM3-TRKA: 3×10^4/mL, Ba/F3-TPM3-TRKA-G595R: 1×10^5/mL, Ba/F3-AFAP1-TRKB: 1×10^5/mL, Ba/F3-ETV6-TRKC: 3×10^4/mL, Ba/F3-ETV6-TRKC-G623R: 3×10^4/mL). Plates were incubated at 37° C., with 5% CO2 for 4 h. Compounds were then added to the plates with the final compound concentrations of 10000, 3333, 1111, […], 123, 41.2, 13.7, 4.6 and 1.5 nM. Plates were incubated at 37° C., with 5% CO2 for 72 h. A mixture of 20 μl MTS/100 μl medium were added to each well and the plates were incubated at 37° C., with 5% CO2 for exactly 2 h. The reaction was stopped by adding 25 μl of 10% SDS per well. The absorbance was measured at 490 nm and 650 nm (reference wavelength). IC50 was calculated using GraphPad Prism 5.0 software.

T1 sequence (Q16288 whole entry G623R, the tested form may be a part): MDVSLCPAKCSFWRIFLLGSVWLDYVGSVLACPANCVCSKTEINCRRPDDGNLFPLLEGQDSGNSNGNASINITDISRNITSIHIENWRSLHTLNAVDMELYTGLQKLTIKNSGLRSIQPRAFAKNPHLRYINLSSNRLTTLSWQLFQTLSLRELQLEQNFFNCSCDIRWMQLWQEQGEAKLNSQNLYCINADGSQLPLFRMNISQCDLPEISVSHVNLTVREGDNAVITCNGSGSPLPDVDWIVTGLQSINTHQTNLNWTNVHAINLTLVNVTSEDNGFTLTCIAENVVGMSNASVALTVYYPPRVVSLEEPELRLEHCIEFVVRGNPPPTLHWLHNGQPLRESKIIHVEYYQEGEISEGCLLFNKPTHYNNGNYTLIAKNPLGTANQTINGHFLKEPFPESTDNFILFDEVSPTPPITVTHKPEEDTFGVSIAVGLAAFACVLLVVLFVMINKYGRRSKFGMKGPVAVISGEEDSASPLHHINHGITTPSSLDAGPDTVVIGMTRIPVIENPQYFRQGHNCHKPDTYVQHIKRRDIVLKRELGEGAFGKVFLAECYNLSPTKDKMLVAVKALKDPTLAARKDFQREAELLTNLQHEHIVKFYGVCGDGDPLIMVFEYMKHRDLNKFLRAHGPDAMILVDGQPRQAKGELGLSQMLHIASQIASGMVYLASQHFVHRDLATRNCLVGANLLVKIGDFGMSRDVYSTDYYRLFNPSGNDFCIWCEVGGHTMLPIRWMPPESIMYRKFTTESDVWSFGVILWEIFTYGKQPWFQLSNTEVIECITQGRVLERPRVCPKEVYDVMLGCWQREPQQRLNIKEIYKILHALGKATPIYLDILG

Row | SMILES | IC50 [nM]
21 | O=C1NCCCOc2ncc(F)cc2[C@@]23C[C@@H]2CCN3c2ccn3ncc1c3n2 [Example 76, (1^3E,1^4E,2^1E,2^1R,2^5S)-3^5-fluoro-4-oxa-2^2,8-diaza-1(5,3)-pyrazolo[1,5-a]pyrimidina-3(3,2)-pyridina-2(2,1)-bicyclo[3.1.0]hexana-cyclononaphan-9-one] | 1
22 | O=C1NCC2(CC2)COc2ncc(F)cc2[C@@]23C[C@@H]2CCN3c2ccn3ncc1c3n2 [Example 79, (1′R,3′E,4′E,5′S)-5′-fluorospiro-[cyclopropane-1,6′-4-oxa-2^2,8-diaza-1(5,3)-pyrazolo[1,5-a]pyrimidina-3(3,2)-pyridina-2(2,1)-bicyclo[3.1.0]hexana-cyclononaphan]-9′-one] | 1
23 | CC1(C)CNC(=O)c2cnn3ccc(nc23)N2CC[C@H]3C[C@]32c2cc(F)cnc2OC1 [Example 80, (1^3E,1^4E,2^1R,2^5S)-3^5-fluoro-6,6-dimethyl-4-oxa-2^2,8-diaza-1(5,3)-pyrazolo[1,5-a] pyrimidina-3(3,2)-pyridina-2(2,1)-bicyclo [3.1.0]hexanacyclononaphan-9-one] | 4
24 | O=C1NCC(F)(F)COc2ncc(F)cc2[C@@]23C[C@@H]2CCN3c2ccn3ncc1c3n2 [Example 81, (1^3E,1^4E,2^1R,2^5S)-3^5,6,6-trifluoro-4-oxa-2^2,8-diaza-1(5,3)-pyrazolo[1,5-a]pyrimidina-3(3,2)-pyridina-2(2,1)-bicyclo[3.1.0] hexanacyclononaphan-9-one] | 1
